Results as given in patent US11807693B2 (priority 2014, dated 2023).
Like-named read-outs stand apart in the source and are kept apart here. Starred links: 1 amine or outer side, 2 acyl side, 3 side chain; linkers in the order of their positions; H or OH if unused. Non-standard residues stand in square brackets, D forms with d. Residues, ends and D or L forms follow the SMILES beside them. *: point of attachment. dBip = N[C@H](Cc1ccc(-c2ccccc2)cc1)C(=O)O; Oic = O=C(O)[C@@H]1C[C@@H]2CCCC[C@@H]2N1; Phe(4-Cl) = N[C@@H](Cc1ccc(Cl)cc1)C(=O)O; dPhe(4-Cl) = N[C@H](Cc1ccc(Cl)cc1)C(=O)O; Phe(4-I) = N[C@@H](Cc1ccc(I)cc1)C(=O)O; γGlu = O=C(O)[C@H](CCC(=O)[*:2])N[*:1]; d(β3hF) = N[C@@H](CC(=O)O)Cc1ccccc1; Igl = N[C@H](C(=O)O)C1Cc2ccccc2C1; NMeR = CN[C@@H](CCCNC(=N)N)C(=O)O; Palmitoyl = CCCCCCCCCCCCCCCC(=O)*; Tridecanoyl = CCCCCCCCCCCCC(=O)*; hArg = N=C(N)NCCCC[C@H](N)C(=O)O; Tic = O=C(O)[C@@H]1Cc2ccccc2CN1; Cha = N[C@@H](CC1CCCCC1)C(=O)O; NMeL = CN[C@@H](CC(C)C)C(=O)O; β3hL = CC(C)C[C@H](N)CC(=O)O; αMeP = C[C@@]1(C(=O)O)CCCN1; β3hP = O=C(O)C[C@@H]1CCCN1; Pip = O=C(O)[C@@H]1CCCCN1; Nle = CCCC[C@H](N)C(=O)O; Orn = NCCC[C@H](N)C(=O)O; Dap = NC[C@H](N)C(=O)O; AEEA = NCCOCCOCC(=O)O; βAla = NCCC(=O)O

Legend:
[1] = molecular target: T1, human APJ receptor (Homo sapiens, UniProt P35414); experiment: [35S] GTPγS assay, human APJ receptor; format: biochemical
T1 construct: expressed in transfected cells
T1 sequence (P35414 1-380): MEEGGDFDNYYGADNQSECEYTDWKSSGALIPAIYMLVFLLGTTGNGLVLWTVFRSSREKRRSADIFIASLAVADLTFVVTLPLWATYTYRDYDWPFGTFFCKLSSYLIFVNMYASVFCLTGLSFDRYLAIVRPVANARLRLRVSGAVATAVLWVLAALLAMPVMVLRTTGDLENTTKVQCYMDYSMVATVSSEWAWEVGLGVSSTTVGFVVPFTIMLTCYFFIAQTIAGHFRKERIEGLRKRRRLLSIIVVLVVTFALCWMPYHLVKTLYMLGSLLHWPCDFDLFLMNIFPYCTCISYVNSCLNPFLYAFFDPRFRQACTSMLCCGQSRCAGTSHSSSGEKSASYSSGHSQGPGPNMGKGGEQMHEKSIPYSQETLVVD

[2] = molecular target: T2, rat APJ receptor (Rattus norvegicus, UniProt Q9JHG3); experiment: [35S] GTPγS assay, rat APJ receptor; format: biochemical
T2 construct: expressed in transfected cells
T2 sequence (Q9JHG3 1-377): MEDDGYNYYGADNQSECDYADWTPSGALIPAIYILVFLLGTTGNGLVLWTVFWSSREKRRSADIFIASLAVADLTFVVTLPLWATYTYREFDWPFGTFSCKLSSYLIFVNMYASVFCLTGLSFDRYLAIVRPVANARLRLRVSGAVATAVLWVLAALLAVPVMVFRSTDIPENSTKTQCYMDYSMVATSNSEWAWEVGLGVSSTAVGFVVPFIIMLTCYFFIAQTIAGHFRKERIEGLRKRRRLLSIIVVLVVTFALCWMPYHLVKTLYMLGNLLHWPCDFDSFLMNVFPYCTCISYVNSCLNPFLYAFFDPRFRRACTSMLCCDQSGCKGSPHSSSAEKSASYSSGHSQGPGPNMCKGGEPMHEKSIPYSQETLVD
Procedure: The membranes were incubated with modified peptides in the assay buffer. […] Bound [^35S] GTPγS was separated from free radiolabel by filtration. The filter bound radioactivity was determined by liquid scintillation counting.

[3] = rat APJ receptor, read-out: EC50 Rat APJ Receptor
[4] = Table 16, read-out: EC50 Rat APJ Receptor

EC50 ([1]; human APJ receptor) | EC50 [2, 3] | EC50 ([1]; Table 16) | EC50 [2, 4] | SMILES
0.914 nM | 1.3 nM | – | – | CC(C)C[C@@H](C(=O)N[C@@H](CO)C(=O)N[C@@H](Cc1c[nH]cn1)C(=O)N[C@@H](CCCCN)C(=O)NCC(=O)N1[C@H](C(=O)N[C@@H](Cc2ccc(I)cc2)C(=O)N2CCC[C@H]2C(=O)N[C@H](Cc2ccc(-c3ccccc3)cc2)C(=O)O)C[C@@H]2CCCC[C@@H]21)N(C)C(=O)[C@@H](CCCNC(=N)N)NC(=O)[C@@H]1CCCN1C(=O)[C@H](CCCCNC(=N)N)NC(=O)[C@H](CCC(N)=O)NC(=O)[C@@H](CCCNC(=N)N)NC(=O)[C@H](CCCCNC(=N)N)NC(=O)COCCOCCNC(=O)COCCOCCNC(=O)CC[C@H](NC(=O)CCCCCCCCC(=O)O)C(=O)O [compound 289]
– | – | 3.29 nM | 10.4 nM | CCCCCCCCCCCCC(=O)N[C@@H](CCC(=O)NCCOCCOCC(=O)NCCOCCOCC(=O)N[C@H](CCC(N)=O)C(=O)N[C@@H](CCCCNC(=N)N)C(=O)N1CCC[C@H]1C(=O)N(C)[C@@H](CCCNC(=N)N)C(=O)N[C@@H](CC1CCCCC1)C(=O)N[C@@H](CO)C(=O)N[C@@H](Cc1c[nH]cn1)C(=O)N[C@@H](CCCCN)C(=O)NCC(=O)N1[C@H](C(=O)N[C@@H](CCCC)C(=O)NCCC(=O)N[C@H](Cc2ccc(Cl)cc2)C(=O)O)C[C@@H]2CCCC[C@@H]21)C(=O)O [compound 295] ({Tridecanoyl-γGlu-AEEA-AEEA}-[dQ][hArg]P[NMeR][Cha]SHKG[Oic][Nle][βAla][dPhe(4-Cl)]-OH)
14.7 nM | 10.4 nM | – | – | CCCCCCCCCCCCC(=O)N[C@@H](CCC(=O)NCCOCCOCC(=O)NCCOCCOCC(=O)N[C@@H](CCCCNC(=N)N)C(=O)N[C@H](CCCNC(=N)N)C(=O)N[C@@H](CCC(N)=O)C(=O)N[C@@H](CCCCNC(=N)N)C(=O)N1CCC[C@H]1C(=O)N[C@@H](CCCCN)C(=O)N(C)[C@@H](CC(C)C)C(=O)N[C@@H](CO)C(=O)N[C@@H](Cc1c[nH]cn1)C(=O)N[C@@H](CCCC)C(=O)NCC(=O)N1[C@H](C(=O)N[C@@H](Cc2ccc(I)cc2)C(=O)N2CCC[C@H]2C(=O)N[C@H](Cc2ccc(-c3ccccc3)cc2)C(=O)O)C[C@@H]2CCCC[C@@H]21)C(=O)O [compound 313] ({Tridecanoyl-γGlu-AEEA-AEEA}-[hArg][dR]Q[hArg]PK[NMeL]SH[Nle]G[Oic][Phe(4-I)]P[dBip]-OH)
37.6 nM | 36.2 nM | – | – | CCCCCCCCCCCCC(=O)N[C@@H](CCC(=O)NCCOCCOCC(=O)NCCOCCOCC(=O)N[C@@H](CCCCNC(=N)N)C(=O)N[C@H](CCCNC(=N)N)C(=O)N[C@@H](CCC(N)=O)C(=O)N[C@@H](CCCCNC(=N)N)C(=O)N1CCC[C@H]1C(=O)N[C@@H](CCCC)C(=O)N(C)[C@@H](CC(C)C)C(=O)N[C@@H](C)C(=O)N[C@@H](C)C(=O)N[C@@H](CCCCN)C(=O)NCC(=O)N1[C@H](C(=O)N[C@@H](Cc2ccc(I)cc2)C(=O)N2CCC[C@H]2C(=O)N[C@H](Cc2ccc(-c3ccccc3)cc2)C(=O)O)C[C@@H]2CCCC[C@@H]21)C(=O)O [compound 329] ({Tridecanoyl-γGlu-AEEA-AEEA}-[hArg][dR]Q[hArg]P[Nle][NMeL]AAKG[Oic][Phe(4-I)]P[dBip]-OH)
0.0934 nM | 0.286 nM | – | – | CCCCCCCCCCCCC(=O)N[C@@H](CCC(=O)NCCOCCOCC(=O)NCCOCCOCC(=O)N[C@H](CC(=O)N[C@@H](CCCNC(=N)N)C(=O)N1CCC[C@H]1C(=O)N(C)[C@@H](CCCNC(=N)N)C(=O)N[C@@H](CC(C)C)C(=O)N[C@@H](CO)C(=O)N[C@@H](Cc1c[nH]cn1)C(=O)N[C@@H](CCCCN)C(=O)NCC(=O)N1CCC[C@H]1C(=O)N[C@@H](CCCC)C(=O)N1CCC[C@H]1C(=O)N[C@@H](Cc1ccc(Cl)cc1)C(=O)O)CC(C)C)C(=O)O [compound 421] ({Tridecanoyl-γGlu-AEEA-AEEA}-[β3hL]RP[NMeR]LSHKGP[Nle]P[Phe(4-Cl)]-OH)
– | – | 0.171 nM | 0.313 nM | CCCCCCCCCCCCC(=O)N[C@@H](CCC(=O)NCCOCCOCC(=O)NCCOCCOCC(=O)N[C@@H](CCC(N)=O)C(=O)N[C@@H](CCCNC(=N)N)C(=O)N1CCC[C@H]1C(=O)N1CCC[C@H]1C(=O)N[C@@H](CC(C)C)C(=O)N[C@@H](CO)C(=O)N[C@@H](Cc1c[nH]cn1)C(=O)N[C@@H](CCCCN)C(=O)NCC(=O)N1CCC[C@H]1C(=O)N[C@@H](CCCC)C(=O)N1CCC[C@H]1C(=O)N[C@@H](Cc1ccc(Cl)cc1)C(=O)O)C(=O)O [compound 427] ({Tridecanoyl-γGlu-AEEA-AEEA}-QRPPLSHKGP[Nle]P[Phe(4-Cl)]-OH)
– | – | 0.177 nM | 0.341 nM | CCCCCCCCCCCCC(=O)N[C@@H](CCC(=O)NCCOCCOCC(=O)NCCOCCOCC(=O)N[C@H](CCCNC(=N)N)C(=O)N[C@H](CCC(N)=O)C(=O)N[C@@H](CCCCNC(=N)N)C(=O)N1CCC[C@H]1C(=O)N[C@@H](CCCCNC(=N)N)C(=O)N[C@@H](CC1CCCCC1)C(=O)N[C@@H](CO)C(=O)N[C@@H](Cc1c[nH]cn1)C(=O)N[C@@H](CCCCN)C(=O)NCC(=O)N1[C@H](C(=O)N[C@@H](CCCC)C(=O)N2CCC[C@H]2C(=O)N[C@@H](Cc2ccc(Cl)cc2)C(=O)O)C[C@@H]2CCCC[C@@H]21)C(=O)O [compound 481] ({Tridecanoyl-γGlu-AEEA-AEEA}-[dR][dQ][hArg]P[hArg][Cha]SHKG[Oic][Nle]P[Phe(4-Cl)]-OH)
– | – | 0.235 nM | 1.15 nM | CCCCCCCCCCCCC(=O)N[C@@H](CCC(=O)NCCOCCOCC(=O)NCCOCCOCC(=O)N[C@H](CCC(N)=O)C(=O)N[C@@H](CCCNC(=N)N)C(=O)N1CCC[C@H]1C(=O)N(C)[C@@H](CCCNC(=N)N)C(=O)N[C@@H](CC1CCCCC1)C(=O)N[C@@H](CO)C(=O)N[C@@H](Cc1c[nH]cn1)C(=O)N[C@@H](CCCCN)C(=O)NCC(=O)N1CCC[C@@]1(C)C(=O)N[C@@H](CCCC)C(=O)N[C@@H](Cc1ccc(Cl)cc1)C(=O)O)C(=O)O [compound 551] ({Tridecanoyl-γGlu-AEEA-AEEA}-[dQ]RP[NMeR][Cha]SHKG[αMeP][Nle][Phe(4-Cl)]-OH)
0.463 nM | 2.85 nM | – | – | CCCCCCCCCCCCCCCC(=O)N[C@@H](CCC(=O)NCCOCCOCC(=O)NCCOCCOCC(=O)N[C@H](CCC(N)=O)C(=O)N[C@@H](CCCNC(=N)N)C(=O)N1CCC[C@H]1C(=O)N(C)[C@@H](CCCNC(=N)N)C(=O)N[C@@H](CC1CCCCC1)C(=O)N[C@@H](CO)C(=O)N[C@@H](Cc1c[nH]cn1)C(=O)N[C@@H](CCCCN)C(=O)NCC(=O)N1CCCC[C@H]1C(=O)N[C@@H](CCCC)C(=O)N1CCC[C@H]1C(=O)N1Cc2ccccc2C[C@H]1C(=O)O)C(=O)O [compound 598] ({Palmitoyl-γGlu-AEEA-AEEA}-[dQ]RP[NMeR][Cha]SHKG[Pip][Nle]P[Tic]-OH)
2.75 nM | 17.2 nM | – | – | CCCCCCCCCCCCCCCC(=O)N[C@@H](CCC(=O)NCCOCCOCC(=O)NCCOCCOCC(=O)N[C@H](CCC(N)=O)C(=O)N[C@@H](CCCNC(=N)N)C(=O)N1CCC[C@H]1C(=O)N(C)[C@@H](CCCNC(=N)N)C(=O)N[C@@H](CC1CCCCC1)C(=O)N[C@@H](CO)C(=O)N[C@@H](CN)C(=O)N[C@@H](CCCCN)C(=O)NCC(=O)N1[C@H](C(=O)N[C@@H](CCCC)C(=O)N2CCC[C@H]2CC(=O)N[C@@H](CC(=O)O)Cc2ccccc2)C[C@@H]2CCCC[C@@H]21)C(=O)O [compound 616] ({Palmitoyl-γGlu-AEEA-AEEA}-[dQ]RP[NMeR][Cha]S[Dap]KG[Oic][Nle][β3hP][d(β3hF)]-OH)
2.47 nM | 11.1 nM | – | – | CCCCCCCCCCCCCCCC(=O)N[C@@H](CCC(=O)NCCOCCOCC(=O)NCCOCCOCC(=O)N[C@H](CCC(N)=O)C(=O)N[C@@H](CCCNC(=N)N)C(=O)N1CCC[C@H]1C(=O)N(C)[C@@H](CCCNC(=N)N)C(=O)N[C@@H](CC1CCCCC1)C(=O)N[C@@H](CO)C(=O)N[C@@H](Cc1c[nH]cn1)C(=O)N[C@@H](CCCN)C(=O)NCC(=O)N1[C@H](C(=O)N[C@@H](CCCC)C(=O)N2CCC[C@H]2CC(=O)N[C@@H](CC(=O)O)Cc2ccccc2)C[C@@H]2CCCC[C@@H]21)C(=O)O [compound 618] ({Palmitoyl-γGlu-AEEA-AEEA}-[dQ]RP[NMeR][Cha]SH[Orn]G[Oic][Nle][β3hP][d(β3hF)]-OH)
11.1 nM | 20.1 nM | – | – | CCCCCCCCCCCCCCCC(=O)N[C@@H](CCC(=O)NCCOCCOCC(=O)NCCOCCOCC(=O)N[C@H](CCC(N)=O)C(=O)N[C@@H](CCCNC(=N)N)C(=O)N1CCC[C@H]1C(=O)N(C)[C@@H](CCCNC(=N)N)C(=O)N[C@@H](CC1CCCCC1)C(=O)N[C@@H](CO)C(=O)N[C@@H](Cc1c[nH]cn1)C(=O)N[C@H](C(=O)NCC(=O)N1[C@H](C(=O)N[C@@H](CCCC)C(=O)N2CCC[C@H]2CC(=O)N[C@@H](CC(=O)O)Cc2ccccc2)C[C@@H]2CCCC[C@@H]21)C1Cc2ccccc2C1)C(=O)O [compound 625] ({Palmitoyl-γGlu-AEEA-AEEA}-[dQ]RP[NMeR][Cha]SH[Igl]G[Oic][Nle][β3hP][d(β3hF)]-OH)
